Drawing on PubChem BioAssay AID330 (DTP/NCI, 2004), this text covers T/C for 22 compounds.

The experiment concerns P388 leukemia ip, CD2F1 mice, survival T/C. Description: NCI In Vivo Anticancer Drug Screen. Data for tumor model P388 Leukemia (intraperitoneal) in CD2F1 (CDF1) mice. The note with it: endpoint: median survival time, higher = longer survival. The method in brief:
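Mice carrying the transplanted tumor received test compound or vehicle. Survival was recorded in each group, and the value is the treated-group measurement divided by that of the vehicle-treated control group.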

Where [1] appears, read: dose: 50.0 mg/kg/injection, schedule: Q01DX005 (ip), vehicle: saline.
The mark [2] stands for this setting: dose: 12.5 mg/kg/injection, schedule: Q01DX005 (ip), vehicle: saline.
Where [3] appears, read: dose: 25.0 mg/kg/injection, schedule: Q01DX005 (ip), vehicle: saline.
Where [4] appears, read: dose: 50.0 mg/kg/injection, schedule: Q01DX009 (ip), vehicle: saline with Tween-80.
The mark [5] stands for this setting: dose: 100.0 mg/kg/injection, schedule: Q01DX009 (ip), vehicle: saline with Tween-80.
Setting [6] is: dose: 200.0 mg/kg/injection, schedule: Q01DX009 (ip), vehicle: saline with Tween-80.
The mark [7] stands for this setting: dose: 100.0 mg/kg/injection, schedule: Q04DX002 (ip), vehicle: saline with Tween-80.
Setting [8] is: dose: 200.0 mg/kg/injection, schedule: Q04DX002 (ip), vehicle: saline with Tween-80.
Where [9] appears, read: dose: 50.0 mg/kg/injection, schedule: Q01DX009 (ip), vehicle: Klucel (hydroxypropylcellulose) (HPC).
[10] abbreviates: dose: 100.0 mg/kg/injection, schedule: Q01DX009 (ip), vehicle: Klucel (hydroxypropylcellulose) (HPC).
Where [11] appears, read: dose: 12.5 mg/kg/injection, schedule: Q01DX009 (ip), vehicle: saline.

“And” between values parts separate entries of the source, which are not always exact repeats. Identical values can stand only once. Toxic doses and inconclusive results are not listed. Square brackets hold non-standard residues; d marks the D form. Peptide text beside a SMILES is read from it. ξ: configuration not given here. ξA = CC(N)C(=O)O

Take `CCCC(O)C(C)[N+](=O)[O-]` (stereo not drawn): the T/C runs as follows: (dose: 100.0 mg/kg/injection, schedule: Q04DX003 (ip), vehicle: saline) 100 % of control; (dose: 200.0 mg/kg/injection, schedule: Q04DX003 (ip), vehicle: saline) 95 % of control.

In the case of `C/C(=N\NC(=S)N1CCC(C)CC1)c1nccnc1C`, the T/C (dose: 6.0 mg/kg/injection, schedule: Q01DX005 (ip), vehicle: Klucel (hydroxypropylcellulose) (HPC)) was 108 % of control; the T/C (dose: 12.0 mg/kg/injection, schedule: Q01DX005 (ip), vehicle: Klucel (hydroxypropylcellulose) (HPC)) was 106 % of control; the T/C (dose: 25.0 mg/kg/injection, schedule: Q01DX005 (ip), vehicle: Klucel (hydroxypropylcellulose) (HPC)) is 106 % of control.

For `CC(NC(=O)CNC(=O)CNC(=O)CNC(=O)CN)C(=O)O` (stereo not drawn) (H-GGGG[ξA]-OH), the T/C is 100 % of control under setting [1]; 103 % of control (dose: 100.0 mg/kg/injection, schedule: Q01DX005 (ip), vehicle: saline); 101 % of control (dose: 200.0 mg/kg/injection, schedule: Q01DX005 (ip), vehicle: saline).

`CN(C)CCN(Cc1ccco1)c1ccccn1`: the T/C (dose: 12.5 mg/kg/injection, schedule: Q01DX005 (ip), vehicle: saline with Tween-80) is 92 % of control; the T/C under setting [2] was 96 % of control and 98 % of control; the T/C (dose: 25.0 mg/kg/injection, schedule: Q01DX005 (ip), vehicle: saline with Tween-80) was 100 % of control; the T/C under setting [3] was 96 % of control and 99 % of control; the T/C under setting [1] is 102 % of control [middle of 4 runs].

With `O=C(CNC(=O)c1ccccc1)N/N=C/c1c(O)ccc2ccccc12`, the T/C by setting is: (dose: 60.0 mg/kg/injection, schedule: Q01DX005 (ip), vehicle: saline with Tween-80) 95 % of control; (dose: 120.0 mg/kg/injection, schedule: Q01DX005 (ip), vehicle: saline with Tween-80) 93 % of control; (dose: 240.0 mg/kg/injection, schedule: Q01DX005 (ip), vehicle: saline with Tween-80) 101 % of control.

Take `CN(C)CC(CN(C)C)C(=O)c1ccc(O)cc1`: the T/C reads like this: (dose: 6.25 mg/kg/injection, schedule: Q01DX005 (ip), vehicle: saline) 118 % of control; under setting [2], 105 % of control; under setting [3], 110 % of control.

`S=C(S)NN1CCOCC1`: the T/C was 88 % of control (dose: 100.0 mg/kg/injection, schedule: Q01DX009 (ip), vehicle: saline); 110 % of control (dose: 200.0 mg/kg/injection, schedule: Q01DX009 (ip), vehicle: saline); 106 % of control (dose: 400.0 mg/kg/injection, schedule: Q01DX009 (ip), vehicle: saline).

In the case of `O=C(c1cccnc1)c1cc(-c2ccccn2)c(=O)n2ccccc12`, the T/C is, setting by setting: (dose: 25.0 mg/kg/injection, schedule: Q01DX009 (ip), vehicle: saline with Tween-80) 99 % of control and 104 % of control; under setting [4], 107 % of control and 109 % of control and 88 % of control; under setting [5], 104 % of control and 107 % of control and 89 % of control; under setting [6], 90 % of control.

As to `C/C(=C\C(=O)O)CC(=O)O`, the T/C was 92 % of control (dose: 100.0 mg/kg/injection, schedule: Q04DX003 (ip), vehicle: saline with Tween-80); 97 % of control (dose: 200.0 mg/kg/injection, schedule: Q04DX003 (ip), vehicle: saline with Tween-80); 88 % of control (dose: 400.0 mg/kg/injection, schedule: Q04DX003 (ip), vehicle: saline with Tween-80).

Turning to `C=Cc1ccccc1N/N=C(\Cl)C(=O)OCC`, the T/C is, setting by setting: under setting [7], 108 % of control; under setting [8], 113 % of control.

In the case of `COc1cccc2c1C(=O)c1c(O)c3c(c(O)c1C2=O)C[C@@](O)(C(C)=O)C[C@@H]3OC1CC(N(CCO)Cc2ccccc2)C(O)C(C)O1` (stereo partly drawn), the T/C is, setting by setting: (dose: 4.0 mg/kg/injection, schedule: Q04DX003 (ip), vehicle: water) 105 % of control; (dose: 8.0 mg/kg/injection, schedule: Q04DX003 (ip), vehicle: water) 113 % of control; (dose: 12.5 mg/kg/injection, schedule: Q04DX003 (ip), vehicle: water) 114 % of control; (dose: 32.0 mg/kg/injection, schedule: Q04DX003 (ip), vehicle: water) 155 % of control; (dose: 50.0 mg/kg/injection, schedule: Q04DX003 (ip), vehicle: water) 172 % of control; (dose: 64.0 mg/kg/injection, schedule: Q04DX003 (ip), vehicle: water) 179 % of control. In addition, the T/C (dose: 100.0 mg/kg/injection, schedule: Q04DX003 (ip), vehicle: water) was 223 % of control; the T/C (dose: 128.0 mg/kg/injection, schedule: Q04DX003 (ip), vehicle: water) is 240 % of control; the T/C (dose: 200.0 mg/kg/injection, schedule: Q04DX003 (ip), vehicle: water) is 124 % of control.

As for `C=C1C(=O)OC2C=CCCC12` (stereo not drawn), the T/C by setting is: (dose: 12.5 mg/kg/injection, schedule: Q01DX009 (ip), vehicle: water) 101 % of control; (dose: 25.0 mg/kg/injection, schedule: Q01DX009 (ip), vehicle: water) 103 % of control; (dose: 50.0 mg/kg/injection, schedule: Q01DX009 (ip), vehicle: water) 106 % of control; (dose: 100.0 mg/kg/injection, schedule: Q01DX009 (ip), vehicle: water) 118 % of control.

Regarding `CCCCCC(C(=O)OCC)/C(C)=N\NC(N)=S` (stereo not drawn), the T/C is 100 % of control (dose: 60.0 mg/kg/injection, schedule: Q01DX005 (ip), vehicle: Klucel (hydroxypropylcellulose) (HPC)); 98 % of control (dose: 120.0 mg/kg/injection, schedule: Q01DX005 (ip), vehicle: Klucel (hydroxypropylcellulose) (HPC)); 100 % of control (dose: 240.0 mg/kg/injection, schedule: Q01DX005 (ip), vehicle: Klucel (hydroxypropylcellulose) (HPC)).

For the compound `CN(C)/N=C1\C(=O)Nc2ccc(Br)cc21`, the T/C reads like this: under setting [9], 100 % of control; under setting [10], 113 % of control; (dose: 200.0 mg/kg/injection, schedule: Q01DX009 (ip), vehicle: Klucel (hydroxypropylcellulose) (HPC)) 108 % of control.

For the compound `CN1CCC(C#N)(c2ccccn2)CC1`, the T/C is, setting by setting: (dose: 2.5 mg/kg/injection, schedule: Q01DX009 (ip), vehicle: saline) 100 % of control; (dose: 5.0 mg/kg/injection, schedule: Q01DX009 (ip), vehicle: saline) 109 % of control; (dose: 10.0 mg/kg/injection, schedule: Q01DX009 (ip), vehicle: saline) 100 % of control.

As to `CCCC/C(C)=N/NC(=S)SC`, the T/C (dose: 3.12 mg/kg/injection, schedule: Q01DX009 (ip), vehicle: saline) is 100 % of control; the T/C (dose: 6.25 mg/kg/injection, schedule: Q01DX009 (ip), vehicle: saline) is 106 % of control; the T/C under setting [11] is 100 % of control.

`Cc1[nH]c2c(N)cccc2c1C`: the T/C runs as follows: under setting [4], 97 % of control; under setting [5], 90 % of control; under setting [6], 88 % of control.

`COc1ccc2c(c1)N(C(=O)CN1CCN(C)CC1)c1ccccc1S2`: the T/C (dose: 25.0 mg/kg/injection, schedule: Q04DX002 (ip), vehicle: saline) is 99 % of control; the T/C (dose: 50.0 mg/kg/injection, schedule: Q04DX002 (ip), vehicle: saline) is 102 % of control; the T/C under setting [7] is 100 % of control; the T/C (dose: 100.0 mg/kg/injection, schedule: Q04DX002 (ip), vehicle: saline) was 99 % of control.

For the compound `COc1ccc(N=Nc2c(-c3ccccc3)nn(C(=S)SC)c2-c2ccccc2)cc1`, the T/C was 92 % of control (dose: 100.0 mg/kg/injection, schedule: Q01DX001 (ip), vehicle: saline with Tween-80); 95 % of control (dose: 200.0 mg/kg/injection, schedule: Q01DX001 (ip), vehicle: saline with Tween-80); 108 % of control (dose: 400.0 mg/kg/injection, schedule: Q01DX001 (ip), vehicle: saline with Tween-80).

Consider `CCNC(=O)OCc1ccco1`, for which the T/C reads like this: under setting [11], 92 % of control; (dose: 25.0 mg/kg/injection, schedule: Q01DX009 (ip), vehicle: saline) 92 % of control; under setting [4], 107 % of control.

On to `CCOc1ccc(NC(=O)c2c(N)n(C)c(=O)n(C)c2=O)cc1`, for which the T/C by setting is: under setting [9], 88 % of control; under setting [10], 93 % of control.

With `CC(=O)c1c(OCC(O)CN2CCCCC2)ccc2c(C)cc(=O)oc12` (stereo not drawn), the T/C by setting is: under setting [7], 100 % of control; under setting [8], 101 % of control.
